Converted amounts (≈) assume the structure as drawn.
Experiments:
VEGFR1 = molecular target: T1, VEGFR1 (Homo sapiens, UniProt P17948); assay: Kinase inhibition, Mobility Shift Assay/IMAP, VEGFR1; assay type: biochemical
T1 construct: purchased Invitrogen PR6731B
Text: (§1) This assay directly monitored the ability of compounds to inhibit kinase phosphorylation by measuring non-phosphorylated and phosphorylated substrates in kinase reactions by using Mobility Shift Assays/IMAP™ analysis.
(§2) Read the conversion ratio data on CaliperEZ Reader II. Convert conversion rates into inhibition ratio data.
(§3) “Min” indicates the readout of the control well without the addition of enzymes; and “Max” indicates the readout of the control well with the addition of DMSO Fit IC50 values with XL Fit excel add-in version […].
(§4) X indicates the log value of compound concentration, and Y indicates the inhibition ratio (% inhibition).

VEGFR3 = molecular target: T2, VEGFR3 (Homo sapiens, UniProt P35916); assay: Kinase inhibition, Mobility Shift Assay/IMAP, VEGFR3; assay type: biochemical
T2 construct: purchased Invitrogen PV4129
Text: as §1, §2, §3, §4

TIE2 = molecular target: T3, TIE2 (Homo sapiens, UniProt Q02763); assay: Kinase inhibition, Mobility Shift Assay/IMAP, TIE2; assay type: biochemical
T3 construct: purchased BPS 40270
Summary of the method: (§5)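 Substrate conversion (phosphorylated vs non-phosphorylated) read by mobility shift on Caliper EZ Reader II and converted to % inhibition relative to no-enzyme and DMSO controls. IC50 fitted from % inhibition versus log compound concentration.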

EGFR = molecular target: T4, EGFR (Homo sapiens, UniProt P00533); assay: Kinase inhibition, Mobility Shift Assay/IMAP, EGFR; assay type: biochemical
T4 construct: purchased Carna 08-115
Summary of the method: as §5

HUVEC cells = assay: Inhibition of VEGF-induced HUVEC cell proliferation, CellTiter Glo; assay type: cell-based; settings: Homo sapiens, 20 ng/ml VEGF, 72 hours
Text: In this experiment, human umbilical vein endothelial cells (HUVEC, Lonza) were used. HUVEC cells are primary cells isolated from umbilical veins. This cell line is a model system to study the functions of endothelial cells. Endothelial cell proliferation in response to VEGF is crucial to the pathological angiogenesis associated with conditions such as tumor development and ocular neovascular diseases.
In this assay, a luciferase bioluminescence assay (CellTiter GLU™, Promega) is used to determine the inhibitory activity of the compounds against VEGF-induced HUVEC cell proliferation and viability. CellTiter GLO™ is a homogeneous method for quantifying the count of viable cells in culture based on ATP, an indicator of metabolically active cells. In this assay, the compound was incubated with HUVEC cells for 72 hours, and then the inhibitory activity of the resulting compound against VEGF-induced HUVEC cell proliferation was measured on the En Vision plate reader.
With the RPMI-1640 medium (plus 5% FBS, 1% Penicillin-Streptomycin) used for the HUVEC cell proliferation experiment, add a cell suspension to a 96-well plate at 100 μl per well, i.e., 4000 HUVEC cells/well, and incubate them overnight in a 5% CO2 incubator at 37° C. (serum starvation). After 24 hours, add 96 μl of the experimental medium to the cell wells, and then add 2 μl of the compound to the cell wells; and after 1 hour following the addition of the compound, add 2 μl of 2 μg/ml VEGF to the cell wells. Add 0.1% DMSO and 20 ng/ml VEGF to cell wells to serve as high-reading control wells. Take cell-free wells with only medium as low-reading control wells. […] After 72 hours of incubation of the cell plate in the incubator, hold the cell plate to be tested at room temperature and discard 100 μl of medium per well. Add 100 μl of CTG reagent (CellTiter Glo kit) per well, oscillate the cell plate in a fast oscillator for 3 minutes, and keep the cell plate at room temperature in the dark for 30 minutes. Read the chemiluminescence signal value with the Envision instrument.
X indicates the log value of compound concentration, Y indicates the inhibition rate (% inhibition), Top indicates the readout of the high-reading control well.

melanin = assay: Binding capacity of compounds to melanin; assay type: in vitro ADME, cuttlefish (Sepia officinalis); settings: cuttlefish (Sepia officinalis), melanin suspension (1 mg/mL); 1 mg/mL melanin in PBS pH 7.4, 2 μM compound, 2 h at 37° C.; read-out: Fu % (percentage of free drug)
Summary of the method: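 Compound (2 μM final) incubated with washed Sepia melanin (1 mg/mL, PBS pH 7.4) 2 h at 37° C with shaking; PBS with 0.1% BSA served as blank. Supernatants quantified by LC-MS/MS; bound fraction Fb derived from melanin versus blank concentration.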

VEGFR2 = VEGFR2 (Homo sapiens, UniProt P35968); assay: Kinase inhibition, Mobility Shift Assay/IMAP, VEGFR2; assay type: biochemical; design: purchased Carna 08-191
Summary of the method: as §5

[1] = Solubility test in buffer, LC-MS; assay type: physicochemical; settings: aqueous buffer, thermodynamic from solid, room temperature, shaking 8 h, pH not given (method: pH 2.0, 6.5, 7.4)
Protocol: Accurately weigh 3 portions of about 2 mg of the compound, and add appropriate volumes of buffers with the pHs of 2.0, 6.5, and 7.4 respectively to obtain a solution with a concentration of 2 mg/mL. After sonication for 10 min, fix them on a shaker and shaking for 8 h at room temperature. After shaking, sonicate for 10 min and centrifuge for 15 min at 13,000 rpm. Pipette 0.1 mL of supernatant into a new tube, shake and rinse it with 5 mL, and discard the liquid. Transfer 0.5 mL of the supernatant again to a new tube, centrifuge it for 15 min at 13,000 rpm, then collect the supernatant (if necessary, dilute with water) and analyze it by LC-MS. The sample concentrations at 3~5 points are subjected to fitting and reticle for quantification.

T2 sequence (P35916 25-1363): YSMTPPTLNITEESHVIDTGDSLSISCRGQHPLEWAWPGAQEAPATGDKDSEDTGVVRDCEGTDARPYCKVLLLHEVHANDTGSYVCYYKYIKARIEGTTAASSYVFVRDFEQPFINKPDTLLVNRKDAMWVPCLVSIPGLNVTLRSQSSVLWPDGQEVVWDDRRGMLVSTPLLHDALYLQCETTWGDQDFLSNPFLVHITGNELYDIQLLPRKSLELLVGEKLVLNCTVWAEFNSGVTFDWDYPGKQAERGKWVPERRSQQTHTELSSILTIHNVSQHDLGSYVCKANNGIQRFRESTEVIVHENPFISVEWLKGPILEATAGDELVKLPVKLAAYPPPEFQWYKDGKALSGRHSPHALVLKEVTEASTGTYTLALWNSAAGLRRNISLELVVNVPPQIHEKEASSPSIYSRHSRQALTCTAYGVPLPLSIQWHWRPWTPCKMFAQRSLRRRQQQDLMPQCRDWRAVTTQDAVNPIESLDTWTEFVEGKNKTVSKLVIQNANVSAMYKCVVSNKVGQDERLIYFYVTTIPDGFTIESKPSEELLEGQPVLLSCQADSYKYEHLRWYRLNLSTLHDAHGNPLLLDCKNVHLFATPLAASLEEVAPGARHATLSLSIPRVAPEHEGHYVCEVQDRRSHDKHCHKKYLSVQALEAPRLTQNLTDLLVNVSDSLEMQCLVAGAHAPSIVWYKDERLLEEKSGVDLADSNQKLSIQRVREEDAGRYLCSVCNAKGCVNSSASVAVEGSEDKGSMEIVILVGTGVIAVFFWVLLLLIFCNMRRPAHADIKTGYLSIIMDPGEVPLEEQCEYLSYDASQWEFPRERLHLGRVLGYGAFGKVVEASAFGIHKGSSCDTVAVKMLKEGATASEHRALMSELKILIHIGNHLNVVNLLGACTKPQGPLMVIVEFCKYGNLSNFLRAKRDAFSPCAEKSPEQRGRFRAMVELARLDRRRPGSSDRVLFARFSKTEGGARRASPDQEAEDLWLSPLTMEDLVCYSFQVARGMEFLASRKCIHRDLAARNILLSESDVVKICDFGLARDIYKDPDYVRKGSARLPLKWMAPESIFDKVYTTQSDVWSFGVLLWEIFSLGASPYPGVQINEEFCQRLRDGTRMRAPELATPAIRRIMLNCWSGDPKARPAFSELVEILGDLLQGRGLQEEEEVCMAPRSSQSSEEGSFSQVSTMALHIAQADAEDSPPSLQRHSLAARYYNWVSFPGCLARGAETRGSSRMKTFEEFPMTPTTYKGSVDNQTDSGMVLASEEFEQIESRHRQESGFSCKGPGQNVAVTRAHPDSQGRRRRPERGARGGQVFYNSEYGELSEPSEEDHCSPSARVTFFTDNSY
T1 sequence (P17948 27-1338): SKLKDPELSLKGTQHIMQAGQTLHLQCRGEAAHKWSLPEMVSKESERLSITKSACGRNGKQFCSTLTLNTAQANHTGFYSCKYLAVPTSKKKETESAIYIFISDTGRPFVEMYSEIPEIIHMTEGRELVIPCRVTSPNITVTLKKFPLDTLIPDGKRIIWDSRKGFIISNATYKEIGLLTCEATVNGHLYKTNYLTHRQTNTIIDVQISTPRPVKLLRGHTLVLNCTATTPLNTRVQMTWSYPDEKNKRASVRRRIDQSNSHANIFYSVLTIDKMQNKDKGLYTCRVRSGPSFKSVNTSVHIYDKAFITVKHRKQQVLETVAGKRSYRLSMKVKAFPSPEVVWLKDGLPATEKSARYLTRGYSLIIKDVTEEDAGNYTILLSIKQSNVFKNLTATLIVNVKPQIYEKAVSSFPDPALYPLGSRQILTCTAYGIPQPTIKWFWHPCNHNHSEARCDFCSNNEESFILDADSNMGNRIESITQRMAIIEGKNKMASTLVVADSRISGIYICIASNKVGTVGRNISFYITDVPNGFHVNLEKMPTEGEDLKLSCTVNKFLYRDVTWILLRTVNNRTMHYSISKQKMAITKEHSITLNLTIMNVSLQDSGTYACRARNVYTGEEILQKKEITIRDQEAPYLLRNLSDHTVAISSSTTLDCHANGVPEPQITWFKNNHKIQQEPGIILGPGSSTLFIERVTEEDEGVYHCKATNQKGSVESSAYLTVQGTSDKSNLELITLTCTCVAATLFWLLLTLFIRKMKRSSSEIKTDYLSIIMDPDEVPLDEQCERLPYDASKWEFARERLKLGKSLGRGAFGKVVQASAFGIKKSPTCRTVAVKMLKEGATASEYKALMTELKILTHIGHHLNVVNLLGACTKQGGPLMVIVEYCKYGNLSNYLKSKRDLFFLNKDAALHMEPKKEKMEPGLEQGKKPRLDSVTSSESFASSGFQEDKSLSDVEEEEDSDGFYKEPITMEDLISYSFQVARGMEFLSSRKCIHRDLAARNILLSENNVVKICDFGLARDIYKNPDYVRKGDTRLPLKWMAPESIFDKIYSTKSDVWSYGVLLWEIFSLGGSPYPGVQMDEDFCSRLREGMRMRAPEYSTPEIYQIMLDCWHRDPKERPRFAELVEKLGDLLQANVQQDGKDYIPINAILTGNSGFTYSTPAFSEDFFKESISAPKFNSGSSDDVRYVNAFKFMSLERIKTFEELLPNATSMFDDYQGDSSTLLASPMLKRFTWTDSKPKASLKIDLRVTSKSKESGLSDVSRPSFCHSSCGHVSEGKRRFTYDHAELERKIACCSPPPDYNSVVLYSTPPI
T3 sequence (Q02763 23-1124): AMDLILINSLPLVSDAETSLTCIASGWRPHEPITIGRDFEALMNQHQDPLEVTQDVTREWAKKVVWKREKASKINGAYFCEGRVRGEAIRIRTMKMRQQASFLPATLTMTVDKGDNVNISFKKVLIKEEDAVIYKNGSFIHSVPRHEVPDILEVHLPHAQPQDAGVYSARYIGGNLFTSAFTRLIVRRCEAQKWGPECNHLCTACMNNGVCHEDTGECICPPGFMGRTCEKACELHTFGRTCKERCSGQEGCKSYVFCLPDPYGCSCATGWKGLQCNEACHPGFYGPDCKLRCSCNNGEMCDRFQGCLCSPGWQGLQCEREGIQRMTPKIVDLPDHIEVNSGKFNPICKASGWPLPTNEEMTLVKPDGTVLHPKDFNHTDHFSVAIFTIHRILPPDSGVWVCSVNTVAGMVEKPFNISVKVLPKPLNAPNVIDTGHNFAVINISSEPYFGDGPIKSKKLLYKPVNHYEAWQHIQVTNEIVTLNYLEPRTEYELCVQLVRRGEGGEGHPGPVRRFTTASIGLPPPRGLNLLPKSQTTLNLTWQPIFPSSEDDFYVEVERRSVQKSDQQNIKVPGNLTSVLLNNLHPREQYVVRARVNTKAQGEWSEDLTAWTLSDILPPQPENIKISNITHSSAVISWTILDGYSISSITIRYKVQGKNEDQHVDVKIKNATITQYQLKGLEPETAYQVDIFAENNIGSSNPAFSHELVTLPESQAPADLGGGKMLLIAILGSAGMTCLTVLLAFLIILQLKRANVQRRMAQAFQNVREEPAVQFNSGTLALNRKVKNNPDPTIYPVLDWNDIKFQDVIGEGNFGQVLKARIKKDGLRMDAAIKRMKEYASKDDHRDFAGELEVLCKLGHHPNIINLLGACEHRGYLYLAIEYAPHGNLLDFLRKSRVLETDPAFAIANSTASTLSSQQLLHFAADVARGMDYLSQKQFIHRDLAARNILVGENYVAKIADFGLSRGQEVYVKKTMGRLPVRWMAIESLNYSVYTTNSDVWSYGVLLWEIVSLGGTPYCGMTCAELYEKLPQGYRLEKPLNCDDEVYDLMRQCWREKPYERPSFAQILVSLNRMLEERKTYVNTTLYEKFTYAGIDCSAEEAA
T4 sequence (P00533 669-1210 limits assumed): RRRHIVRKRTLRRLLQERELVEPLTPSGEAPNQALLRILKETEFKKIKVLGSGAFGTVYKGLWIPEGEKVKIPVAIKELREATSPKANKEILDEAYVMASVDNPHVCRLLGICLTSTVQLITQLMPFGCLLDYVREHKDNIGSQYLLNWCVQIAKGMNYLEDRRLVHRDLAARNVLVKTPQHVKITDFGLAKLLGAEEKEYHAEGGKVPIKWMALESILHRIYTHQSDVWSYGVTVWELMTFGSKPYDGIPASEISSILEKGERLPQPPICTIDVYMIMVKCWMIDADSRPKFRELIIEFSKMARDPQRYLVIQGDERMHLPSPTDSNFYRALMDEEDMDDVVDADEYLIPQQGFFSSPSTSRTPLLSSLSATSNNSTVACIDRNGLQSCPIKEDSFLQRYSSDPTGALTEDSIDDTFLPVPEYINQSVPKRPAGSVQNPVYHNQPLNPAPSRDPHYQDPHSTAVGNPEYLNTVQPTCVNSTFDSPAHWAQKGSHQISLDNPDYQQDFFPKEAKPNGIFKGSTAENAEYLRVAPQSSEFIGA
Chain of VEGFR2 (P35968 790-1356 limits assumed): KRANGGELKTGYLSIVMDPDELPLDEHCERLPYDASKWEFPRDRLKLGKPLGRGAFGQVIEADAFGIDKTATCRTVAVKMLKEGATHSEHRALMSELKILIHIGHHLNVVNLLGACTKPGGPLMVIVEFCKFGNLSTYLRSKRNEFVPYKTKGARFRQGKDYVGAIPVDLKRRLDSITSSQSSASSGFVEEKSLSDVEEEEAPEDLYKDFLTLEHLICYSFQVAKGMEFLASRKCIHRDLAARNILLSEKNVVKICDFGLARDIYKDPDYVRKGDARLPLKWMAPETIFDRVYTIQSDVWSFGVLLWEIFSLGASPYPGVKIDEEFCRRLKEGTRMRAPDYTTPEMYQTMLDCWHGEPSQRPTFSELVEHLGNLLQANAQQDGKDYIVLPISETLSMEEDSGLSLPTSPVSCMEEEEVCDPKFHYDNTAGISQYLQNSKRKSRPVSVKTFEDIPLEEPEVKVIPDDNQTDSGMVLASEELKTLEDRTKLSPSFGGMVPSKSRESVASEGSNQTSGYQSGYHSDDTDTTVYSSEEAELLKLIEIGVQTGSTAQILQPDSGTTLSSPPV

Row | Compound | IC50 (VEGFR1) [nM] | IC50 (VEGFR3) [nM] | IC50 (TIE2) [nM] | IC50 (EGFR) [nM] | IC50 (HUVEC cells) [nM] | fraction unbound at 2 h, 2 μM (melanin) | IC50 (VEGFR2) [nM] | solubility at 8 h [1] [µg/mL]
1 | CN1CCC(CCNC(=O)Nc2snc(OCc3ccc4c(c3)OCC4)c2C(N)=O)CC1 [Compound T053, 3-((2,3-dihydrobenzofuran-6-yl)methoxy)-5-(3-(2-(1-methylpiperidin-4-yl)ethyl)ureido)isothiazole-4-carboxamide] | 14.7 | 17.4 | 258 | 11400 | 69.7 | 0.0225 | 10.4 | –
2 | COc1cc(COc2nsc(NC(=O)NCCCCN3CC[C@@H](F)C3)c2C(N)=O)cc(OC)c1 [Compound T064, (R)-3-((3,5-dimethoxybenzyl)oxy)-5-(3-(4-(3-fluoropyrrolidin-1-yl)butyl)ureido)isothiazole-4-carboxamide] | – | – | – | > 60000 | 79.2 | 0.0269 | 43.3 | 400 (≈ 807 µM)
3 | NC(=O)c1c(OCc2cc3c(cc2F)CCO3)nsc1NC(=O)NCCCCN1CCCC1 [Compound T071, 3-((5-fluoro-2,3-dihydrobenzofuran-6-yl)methoxy)-5-(3-(4-(pyrrolidin-1-yl)butyl)ureido)isothiazole-4-carboxamide] | 13.4 | 18.7 | 147 | 15200 | 74.5 | 0.0231 | 4.36 | –
4 | CN1CCC(CCNC(=O)Nc2snc(OCc3cc4c(cc3F)CCO4)c2C(N)=O)CC1 [Compound T073] | 5.99 | 10.7 | – | 4550 | 26.9 | – | 2.73 | –
5 | NC(=O)c1c(OCc2cc3c(cc2F)CCO3)nsc1NC(=O)NCCCCN1CC[C@@H](F)C1 [Compound T079, 3-[(5-fluoro-2,3-dihydrobenzofuran-6-yl)methoxy]-5-[4-[(3R)-3-fluoropyrrolidin-1-yl]butylcarbamoylamino]isothiazole-4-carboxamide] | 11.8 | 21.4 | 115 | 5140 | 57.7 | 0.0526 | 4.47 | –
6 | NC(=O)c1c(OCc2cc3c(cc2F)CCO3)nsc1NC(=O)NCCCCN1CC[C@H](O)C1 [Compound T090, 3-[(5-fluoro-2,3-dihydrobenzofuran-6-yl)methoxy]-5-[4-[(3S)-3-hydroxypyrrolidin-1-yl]butylcarbamoylamino]isothiazole-4-carboxamide] | 7.73 | 13 | – | 13900 | 46.9 | 0.025 | 3.55 | –
7 | NC(=O)c1c(OCc2cc3c(cc2F)CCO3)nsc1NC(=O)NCCC1CCN(CCF)CC1 [Compound T103, 3-[(5-fluoro-2,3-dihydrobenzofuran-6-yl)methoxy]-5-[2-[1-(2-fluoroethyl)-4-piperidyl]ethylcarbamoylamino]isothiazole-4-carboxamide] | – | – | 94.5 | 5490 | 66 | 0.0229 | 4.96 | –
8 | COc1ccc(F)c(COc2nsc(NC(=O)NCCCCN3CC[C@@H](F)C3)c2C(N)=O)c1F [Compound T111, 3-[(2,6-difluoro-3-methoxy-phenyl)methoxy]-5-[4-[(3R)-3-fluoropyrrolidin-1-yl]butylcarbamoylamino]isothiazole-4-carboxamide] | – | – | 223 | 19800 | 32 | 0.0449 | 15.1 | –
9 | COc1ccc(F)c(COc2nsc(NC(=O)NCCC3CCN(CCF)CC3)c2C(N)=O)c1F [Compound T112, 3-[(2,6-difluoro-3-methoxy-phenyl)methoxy]-5-[2-[1-(2-fluoroethyl)-4-piperidyl]ethylcarbamoylamino]isothiazole-4-carboxamide] | – | – | 129 | 10200 | 36 | 0.0222 | 14.6 | –
10 | COc1ccc(F)c(COc2nsc(NC(=O)NCCCCN3CC[C@H](F)C3)c2C(N)=O)c1F [Compound T113, 3-[(2,6-difluoro-3-methoxy-phenyl)methoxy]-5-[4-[(3S)-3-fluoropyrrolidin-1-yl]butylcarbamoylamino]isothiazole-4-carboxamide] | – | – | 163 | 11800 | 27 | 0.0268 | 14.7 | –
11 | NC(=O)c1c(OCc2cc3c(cc2F)CCO3)nsc1NC(=O)NCCCCN1CC[C@H](F)C1 [Compound T115, 3-[(5-fluoro-2,3-dihydrobenzofuran-6-yl)methoxy]-5-[4-[(3S)-3-fluoropyrrolidin-1-yl]butylcarbamoylamino]isothiazole-4-carboxamide] | – | – | 117 | 8220 | 36 | 0.0148 | 7.2 | –
12 | NC(=O)c1c(OCc2cc3c(cc2F)CCO3)nsc1NC(=O)NCCCN1CC[C@H](F)C1 [Compound T119, 3-[(5-fluoro-2,3-dihydrobenzofuran-6-yl)methoxy]-5-[3-[(3S)-3-fluoropyrrolidin-1-yl]propylcarbamoylamino]isothiazole-4-carboxamide] | – | – | 205 | 19900 | 67 | 0.0202 | – | –
13 | NC(=O)c1c(OCc2cc(C(=O)NC3CC3)ccc2F)nsc1NC(=O)NCCCN1CC[C@@H](F)C1 [Compound T122, 3-[[5-(cyclopropylcarbamoyl)-2-fluoro-phenyl]methoxy]-5-[3-[(3R)-3-fluoropyrrolidin-1-yl]propylcarbamoylamino]isothiazole-4-carboxamide] | – | – | 2100 | 5680 | 44 | 0.0372 | 2.55 | 1280 (≈ 2450 µM)
